In ChEMBL document CHEMBL3817748, “Identification of novel peptoid agonists of fibroblast growth factor receptor using microarray-based screening” (Medchemcomm, 2016) one finds Activity data, which are given here for six molecules.

Calls of active or inactive are those of the source. No cut-off for these calls is given here. *1 amine or outer side, *2 acyl side, *3 side chain or, on linkers, in order; H or OH if unused. Where a SMILES comes first, the peptide text is derived from it. [ ]: non-standard residue; d: D form. ξ: configuration not given here. Gly(N-(CH2)3N-pyrrolidone) = O=C(O)CNCCCN1CCCC1=O; Gly(N-CH2CH2C6H4-4Cl) = O=C(O)CNCCc1ccc(Cl)cc1; X1 = O=C(CN(Cc1cccc(C(F)(F)F)c1)[*:1])[*:2]; X3 = CC(c1ccccc1)N(CC(=O)[*:2])[*:1]; Nrpe = C[C@@H](NCC(=O)O)c1ccccc1; X2 = O=C(CN(CC1CCCO1)[*:1])[*:2]; NFurfurylGly = O=C(O)CNCc1ccco1; Gly(N-cPent) = O=C(O)CNC1CCCC1; NAllylGly = C=CCNCC(=O)O; Nphe = O=C(O)CNCc1ccccc1; Nlys = NCCCCNCC(=O)O; ξC = NC(CS)C(=O)O

Test [1] is filed under the species Homo sapiens. The experiment in a line: Binding affinity to Fc-tagged FGFR1alpha (unknown origin) at 100 uM after 1 hr by Texas-red labeled anti-Fc detection based microarray assay.
The species entered for test [2] is Homo sapiens. The test can be described thus: Binding affinity to Fc-tagged FGFR1alpha (unknown origin) at 50 uM after 1 hr by Texas-red labeled anti-Fc detection based microarray assay.
Test [3] concerns the target Fibroblast growth factor receptor 1 (Mus musculus) (UniProt P16092). The test can be described thus: Agonist activity at FGFR1 in mouse NIH-3T3 cells assessed as increase in Akt phosphorylation at 15 uM after 10 mins by Western blot analysis. It is filed as cell-based. To be noted: NIH3T3. For orientation: A western blot detects proteins with antibodies after separation by electrophoresis.

Test [4] addresses Fibroblast growth factor receptor 1 (Homo sapiens) (UniProt P11362). The test can be described thus: Agonist activity at FGFR1 in human MCF7 cells assessed as increase in Akt phosphorylation at 15 uM after 10 mins by Western blot analysis. It is filed as cell-based.
In test [5] the test system is MCF7. The experiment in a line: Agonist activity at FGFR1alpha in human MCF7 cells assessed as increase in ERK phosphorylation at 15 uM after 10 mins by Western blot analysis. In kind it is cell-based.
Test [6] is filed under the species Homo sapiens. The test can be described thus: Binding affinity to Fc-tagged FGFR1alpha (unknown origin) at 25 uM after 1 hr by Texas-red labeled anti-Fc detection based microarray assay.
The target of test [7] is Fibroblast growth factor receptor 2 (Homo sapiens) (UniProt P21802). The test can be described thus: Agonist activity at FGFR2 in human MDA231 cells assessed as increase in Akt phosphorylation at 15 uM after 10 mins by Western blot analysis. It is filed as cell-based.
Sequence of Fibroblast growth factor receptor 2 (Homo sapiens) (P21802 22-821 limits assumed): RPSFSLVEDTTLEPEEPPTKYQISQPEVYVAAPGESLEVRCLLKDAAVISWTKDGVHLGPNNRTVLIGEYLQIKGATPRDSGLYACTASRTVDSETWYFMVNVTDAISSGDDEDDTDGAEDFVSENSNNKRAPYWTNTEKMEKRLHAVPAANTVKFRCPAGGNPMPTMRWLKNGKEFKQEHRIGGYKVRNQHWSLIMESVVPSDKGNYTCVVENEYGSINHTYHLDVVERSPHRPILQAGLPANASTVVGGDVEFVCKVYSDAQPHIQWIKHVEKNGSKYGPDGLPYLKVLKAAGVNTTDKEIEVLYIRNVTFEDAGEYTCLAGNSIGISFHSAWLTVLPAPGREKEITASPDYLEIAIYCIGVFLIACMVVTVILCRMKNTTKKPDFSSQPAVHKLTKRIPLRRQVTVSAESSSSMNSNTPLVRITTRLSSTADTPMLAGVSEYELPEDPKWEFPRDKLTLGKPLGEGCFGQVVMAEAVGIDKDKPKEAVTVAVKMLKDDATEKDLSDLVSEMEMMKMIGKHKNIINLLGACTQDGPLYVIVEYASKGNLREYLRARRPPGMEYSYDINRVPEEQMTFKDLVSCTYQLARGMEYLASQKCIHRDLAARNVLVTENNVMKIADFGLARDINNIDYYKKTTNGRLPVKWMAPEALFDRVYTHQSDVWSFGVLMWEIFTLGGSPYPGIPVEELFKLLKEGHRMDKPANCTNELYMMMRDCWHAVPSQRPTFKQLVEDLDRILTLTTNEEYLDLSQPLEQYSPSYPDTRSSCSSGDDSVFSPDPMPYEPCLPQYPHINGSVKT
In test [8] the target is Fibroblast growth factor receptor 1 (Mus musculus) (UniProt P16092). The test can be described thus: Agonist activity at FGFR1 in mouse NIH-3T3 cells assessed as increase in ERK phosphorylation at 15 uM after 10 mins by Western blot analysis. It is filed as cell-based. The conditions noted are these: NIH3T3.
Sequence of Fibroblast growth factor receptor 1 (Mus musculus) (P16092 whole entry): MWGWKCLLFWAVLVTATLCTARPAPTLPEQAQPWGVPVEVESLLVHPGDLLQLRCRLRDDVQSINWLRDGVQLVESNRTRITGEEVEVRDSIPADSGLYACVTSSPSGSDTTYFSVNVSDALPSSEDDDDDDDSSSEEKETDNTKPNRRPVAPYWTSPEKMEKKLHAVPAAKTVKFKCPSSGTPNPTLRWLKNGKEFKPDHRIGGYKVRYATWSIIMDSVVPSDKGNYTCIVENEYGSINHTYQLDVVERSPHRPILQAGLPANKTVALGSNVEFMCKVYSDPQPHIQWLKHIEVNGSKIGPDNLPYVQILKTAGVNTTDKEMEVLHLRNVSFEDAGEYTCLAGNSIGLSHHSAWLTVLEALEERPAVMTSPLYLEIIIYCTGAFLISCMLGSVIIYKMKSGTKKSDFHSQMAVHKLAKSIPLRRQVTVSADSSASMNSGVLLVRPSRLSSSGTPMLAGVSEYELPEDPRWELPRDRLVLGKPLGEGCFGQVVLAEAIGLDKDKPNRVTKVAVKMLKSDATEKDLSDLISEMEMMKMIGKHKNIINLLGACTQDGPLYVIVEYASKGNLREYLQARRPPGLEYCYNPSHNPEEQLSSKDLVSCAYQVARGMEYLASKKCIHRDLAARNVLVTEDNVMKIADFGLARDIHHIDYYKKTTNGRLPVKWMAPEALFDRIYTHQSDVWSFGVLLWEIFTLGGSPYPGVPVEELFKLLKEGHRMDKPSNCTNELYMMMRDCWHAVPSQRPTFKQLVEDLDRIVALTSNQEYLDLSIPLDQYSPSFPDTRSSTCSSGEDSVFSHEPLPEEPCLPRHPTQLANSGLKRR
Test [9] addresses Fibroblast growth factor receptor 2 (Homo sapiens) (UniProt P21802). The experiment in a line: Agonist activity at FGFR2 in human MDA231 cells assessed as increase in ERK phosphorylation at 15 uM after 10 mins by Western blot analysis. It is filed as cell-based.
For test [10], the species on record is Homo sapiens. The test can be described thus: Binding affinity to Fc-tagged FGFR1alpha (unknown origin) uM after 1 hr by FITC-labeled anti-Fc detection based microarray assay.
The species entered for test [11] is Homo sapiens. The test can be described thus: Binding affinity to Fc-tagged FGFR1alpha (unknown origin) at 150 uM by Texas-red labeled anti-Fc detection based fluorescence microscopic analysis.

Sequence of Fibroblast growth factor receptor 1 (Homo sapiens) (P11362 22-822 limits assumed): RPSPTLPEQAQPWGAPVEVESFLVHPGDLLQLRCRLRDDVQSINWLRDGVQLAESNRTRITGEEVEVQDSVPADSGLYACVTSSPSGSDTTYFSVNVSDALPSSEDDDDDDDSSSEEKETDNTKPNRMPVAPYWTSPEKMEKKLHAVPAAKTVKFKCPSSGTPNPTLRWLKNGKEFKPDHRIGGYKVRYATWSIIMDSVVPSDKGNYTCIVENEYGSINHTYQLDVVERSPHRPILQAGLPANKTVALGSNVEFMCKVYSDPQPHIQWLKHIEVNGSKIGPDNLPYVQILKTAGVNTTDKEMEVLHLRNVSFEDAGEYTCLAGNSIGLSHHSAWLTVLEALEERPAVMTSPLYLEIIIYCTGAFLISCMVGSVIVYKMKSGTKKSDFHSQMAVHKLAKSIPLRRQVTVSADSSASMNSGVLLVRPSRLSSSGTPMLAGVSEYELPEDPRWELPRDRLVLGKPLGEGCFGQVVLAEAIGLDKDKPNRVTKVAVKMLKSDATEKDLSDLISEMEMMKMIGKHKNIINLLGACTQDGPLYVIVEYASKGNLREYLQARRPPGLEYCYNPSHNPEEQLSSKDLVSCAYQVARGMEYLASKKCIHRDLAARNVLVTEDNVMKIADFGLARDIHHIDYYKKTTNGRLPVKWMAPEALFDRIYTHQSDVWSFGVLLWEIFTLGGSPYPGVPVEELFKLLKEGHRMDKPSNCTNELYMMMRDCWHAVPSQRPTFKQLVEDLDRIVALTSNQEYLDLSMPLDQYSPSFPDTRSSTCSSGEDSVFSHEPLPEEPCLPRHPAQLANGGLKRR

On to `CC(NCC(=O)N(CC(=O)N(CC(=O)N(CC(=O)N(CC(=O)N(CC(=O)N(CCCCN)CC(=O)N(CCCCN)CC(=O)NC(CS)C(N)=O)Cc1cccc(C(F)(F)F)c1)Cc1cccc(C(F)(F)F)c1)CC1CCCO1)Cc1ccccc1)C1CCCC1)c1ccccc1` (stereo unspecified), for which the result in [1] and in test [2] was inactive.
`C=CCN(CC(=O)N(CC(=O)N(CCCCN)CC(=O)N(CCCCN)CC(=O)N[C@@H](CS)C(N)=O)Cc1ccco1)C(=O)CN(Cc1ccco1)C(=O)CN(CC1CCCO1)C(=O)CN(C(=O)CNCCc1ccc(Cl)cc1)C1CCCC1` (stereo partly specified) (H-[Gly(N-CH2CH2C6H4-4Cl)][Gly(N-cPent)][X2][NFurfurylGly][NAllylGly][NFurfurylGly][Nlys][Nlys]C-NH2): the outcome in test [3], in [4], in [5], in [7], in test [8] and in test [9] was inactive. The result in test [1], in [6], in test [2] and in test [10] was Active.
As to `C=CCN(CC(=O)N(CC(=O)N(CC(=O)N(CC(=O)N(CCCCN)CC(=O)N(CCCCN)CC(=O)NC(CS)C(N)=O)C1CCCC1)Cc1ccco1)Cc1cccc(C(F)(F)F)c1)C(=O)CN(C(=O)CNCCc1ccc(Cl)cc1)C(C)c1ccccc1` (stereo unspecified) (H-[Gly(N-CH2CH2C6H4-4Cl)][X3][NAllylGly][X1][NFurfurylGly][Gly(N-cPent)][Nlys][Nlys][ξC]-NH2), the outcome in test [1] and in [2] was inactive.
On to `C=CCN(CC(=O)N(CCCCN)CC(=O)N(CCCCN)CC(=O)N[C@@H](CS)C(N)=O)C(=O)CN(C(=O)CN(Cc1ccccc1)C(=O)CN(C(=O)CN(Cc1ccccc1)C(=O)CNC1CCCC1)C1CCCC1)[C@H](C)c1ccccc1` (H-[Gly(N-cPent)][Nphe][Gly(N-cPent)][Nphe][Nrpe][NAllylGly][Nlys][Nlys]C-NH2), for which the outcome in test [3], in test [1], in test [4], in [5], in test [6] and in [2] was Active. The outcome in test [7], in test [8], in test [9] and in test [10] was Active.
Turning to `C=CCN(CC(=O)N(CC(=O)N(CCCCN)CC(=O)N(CCCCN)CC(=O)N[C@@H](CS)C(N)=O)[C@H](C)c1ccccc1)C(=O)CN(Cc1ccco1)C(=O)CN(C(=O)CN(Cc1cccc(C(F)(F)F)c1)C(=O)CNCc1ccccc1)C1CCCC1` (H-[Nphe][X1][Gly(N-cPent)][NFurfurylGly][NAllylGly][Nrpe][Nlys][Nlys]C-NH2), the result in [11], in test [3], in test [1], in test [4], in test [5] and in [6] was Active. Besides, the outcome in test [2], in [7], in test [8], in test [9] and in [10] was Active.
On to `C=CCN(CC(=O)N(CC(=O)N(CCCN1CCCC1=O)CC(=O)N(CCCCN)CC(=O)N(CCCCN)CC(=O)N[C@@H](CS)C(N)=O)CC1CCCO1)C(=O)CN(C(=O)CN(Cc1cccc(C(F)(F)F)c1)C(=O)CNCCCN1CCCC1=O)[C@H](C)c1ccccc1` (stereo partly specified) (H-[Gly(N-(CH2)3N-pyrrolidone)][X1][Nrpe][NAllylGly][X2][Gly(N-(CH2)3N-pyrrolidone)][Nlys][Nlys]C-NH2), for which the result in test [11], in test [3], in test [1], in [4], in test [5] and in test [6] was Active. In addition, the outcome in test [2], in test [7], in test [8], in [9] and in test [10] was Active.
